Data reported in US7858613B2, “Substituted benzo-condensed cycloheptanone derivatives and their use for producing drugs” (Gruenenthal GmbH, priority 2005, dated 2010).

Tests used:
human CB2 receptor = molecular target: T1, human CB2 receptor (Homo sapiens, UniProt P34972); experiment: Affinity for cannabinoid receptor CB2, [3H]-CP 55,940 displacement on HEK-293EBNA membranes; conditions: 10 μM test substance; 0.33 nM [3H]-CP 55,940; percent inhibition of specific binding
T1 construct: expressed in transfected cells; host or cells: HEK-293EBNA cells (membranes)
Excerpt: VI. Determination of the Affinity for the Cannabinoid Receptor CB2 (CB2 Receptor):
To determine the affinity of the inventive compounds for the cannabinoid receptor, membranes from human recombinant HEK-293EBNA cells were used, which had been transfected stably with the human CB2 receptor. The radioligand used was tritium-labeled 5-(1,1-dimethylheptyl)-2-(5-hydroxypropyl)cyclohexyl)-1-alpha,2-beta,5-alpha)phenol ([3]H—CP 55,940 with 103.4 Ci/mmol, 1 mCi/ml). The determination was effected in a test buffer composed of 50 mM Tris-HCl, 2.5 mM EDTA, 5 mM MgCl2 and 1.0 mg/ml of fatty acid-free BSA. The test substances were each dissolved in DMSO.
The affinity of the inventive compounds for the CB2 receptor is determined by their ability to displace [3]H—CP 55,940 from CB2 receptors in membranes from HEK-293EBNA cells. To this end, in each case 8 μg of the membranes (20 μl of a solution from membranes in a concentration of 400 μg/ml) are incubated in wells on a microtiter plate with a 0.33 nM solution of ^[3]H-CP […] (120 Ci/mmol) in a total volume of test buffer of 200 μl at 30° C. for 90 minutes.
Subsequently, either the test substances or WIN 55212-2 to determine the unspecific binding, in each case dissolved in DMSO, are added to the wells so as to result in each case in a concentration of the corresponding substances of 10 μM.
Incubation at 30° C. is continued for a further 40 minutes. The binding reaction was ended by rapid filtration through GF/C filter paper which had been treated with 0.05% PEI using a Brandel cell harvester with 96 wells. The filters are washed nine times with 0.5 ml of ice-cooled washing buffer ([…] Tris-HCl, 5 mM MgCl2, 2.5 mM EDTA, 2% BSA, pH 7.4), air-dried and placed in scintillation fluid, and the radioactivity is determined with the aid of a scintillation counter.
The percentage displacement of the radioactive ligand ^[3]H-CP 55,940 from its binding to the CB2 receptor is reported as percent inhibition of the specific binding.

vanilloid receptor (VR1) = molecular target: T2, vanilloid receptor (VR1) (Homo sapiens, UniProt Q8NER1); experiment: Functional study on vanilloid receptor (VR1), FLIPR Ca2+ assay in VR1-transfected CHO K1 cells; assay type: cell-based; conditions: test substance 10 μM; CHO K1 cells transfected with VR1; suppression of Ca2+ current after 100 nM capsaicin; read-out: VR1 (human) (% inhibition compared to 10 μM CP)
T2 construct: expressed in transfected cells; host or cells: CHO K1 cells (ECACC)
Excerpt: II. Functional Studies on the Vanilloid Receptor (VR1)
The agonistic or antagonistic action of the substances to be tested on vanilloid receptor (VR1) can also be determined with the assay which follows. In this assay, the Ca^2+ current through the channel is quantified with the aid of a Ca^2+-sensitive dye (Fluo-4 type, Molecular Probes, Europe BV, Leiden, the Netherlands) in a fluorescent imaging plate reader (FLIPR, Molecular Devices, Sunnyvale, USA).
Chinese hamster ovary cells (CHO K1 cells, European Collection of Cell Cultures (ECACC) Great Britain) are transfected stably with the VR1 gene. For functional studies, these cells are plated out onto poly-D-lysine-coated black 96-well plates with a clear bottom (BD Biosciences, Heidelberg, Germany) in a density of 25 000 cells/well. The cells are incubated overnight at 37° C. and 5% CO2 in a culture medium (Ham's Nutrient Mixture F12, 10% by volume of FCS (fetal calf serum), 18 μg/ml of L-proline). The next day, the cells are incubated with Fluo-4 (Fluo-4 2 μM, Pluronic F127 0.01% by volume, Molecular Probes in HBSS (Hank's buffered saline solution), Gibco Invitrogen GmbH, Karlsruhe, Germany) at 37° C. for 30 minutes. Subsequently, the plates are washed 3 times with HBSS buffer and, after a further incubation of 15 minutes at room temperature, used for Ca^2+ measurement in FLIPR. The Ca^2+-dependent fluorescence is measured before and after addition of the substances to be studied (wavelength λex=488 nm, λem=540 nm). The quantification is effected by measuring the highest fluorescence intensity (FC, fluorescence counts) over the time.
The FLIPR protocol consists of 2 substance additions. First, the substances to be tested (10 μM) are pipetted onto the cells and the Ca^2+ current is compared with the control (capsaicin 10 μM) (% activation based on the Ca^2+ signal after addition of 10 μM capsaicin). After incubation for 5 minutes, 100 nM capsaicin is applied and the current of Ca^2+ is likewise determined.
Desensitizing agonists and antagonists led to a suppression of the Ca^2+ current. % inhibition is calculated compared to the maximum achievable inhibition with 10 μM capsazepine.

[1] = molecular target: T3, vanilloid receptor 1 (VR1/TRPV1) (Rattus norvegicus, UniProt O35433); experiment: Functional study on vanilloid receptor 1 (VR1/TRPV1), FLIPR Ca2+ assay in rat dorsal root ganglia cells; assay type: cell-based; conditions: test compound 10 μM, rat DRG cells; for inhibition at 10 µM: suppression of Ca2+ current after 100 nM capsaicin, read-out: VR1 (rat) (% inhibition compared to 10 μM CP)
T3 construct: The spinal column is removed from beheaded rats; from tissue; host or cells: primary cells from rat dorsal root ganglia
Experimental: Preference may likewise be given to inventive compounds which, in the FLIPR assay, in a concentration of 10 μM, have an inhibition of the Ca^2+ ion current in dorsal root ganglia of rats of at least 10%, preferably of at least 30%, more preferably of at least 50%, even more preferably of at least 70%, even more preferably of at least 90%, compared to the maximum achievable inhibition of the Ca^2+ ion current with […] in a concentration of 10 μM.
In the FLIPR assay, the Ca^2+ current is quantified with the aid of a Ca^2+-sensitive dye (Fluo-4 type, Molecular Probes Europe BV, Leiden, the Netherlands) in the fluorescent imaging plate reader (FLIPR, Molecular Devices, Sunnyvale, USA), as described below.
I. Functional Study on the Vanilloid Receptor 1 (VR1/TRPV1 Receptor)
The agonistic or antagonistic action of the substances to be studied on the vanilloid receptor 1 (VR1/TRPV1) of the rat species can be determined with the following assay. In this assay, the Ca^2+ current through the receptor channel is quantified with the aid of a Ca^2+-sensitive dye (Fluo-4 type, Molecular Probes Europe BV, Leiden the Netherlands) in a fluorescent imaging plate reader (FLIPR, Molecular Devices, Sunnyvale, USA).
Cell culture plate: poly-D-lysine-coated, black 96-hole plates with a clear bottom (96 well black/clear plate, BD Biosciences, Heidelberg, Germany) are additionally coated with laminin (Gibco Invitrogen GmbH, Karlsruhe, Germany) by diluting laminin to a concentration of 100 μg/ml with PBS (Ca—Mg-free PBS, Gibco Invitrogen GmbH, Karlsruhe, Germany). Aliquots having a concentration of 100 μg/ml of laminin are withdrawn and stored at −20° C. The aliquots are diluted with PBS in a ratio of 1:10 to 10 μg/ml of laminin and in each case 50 μl of the solution are pipetted into a well of the cell culture plate. The cell culture plates are incubated at 37° C. for at least two hours, the supernatant solution is removed by suction and the wells are each washed twice with PBS. The coated cell culture plates are stored with supernatant PBS which is not removed until directly before the application of the cells.
The spinal column is removed from beheaded rats and placed directly into cold HBSS buffer (Hank's buffered saline solution, Gibco Invitrogen GmbH, Karlsruhe, Germany), i.e. placed in an ice bath, which has been admixed with 1% by volume of an AA solution (antibiotic/antimycotic solution, PAA, Pasching, Austria). The spinal column is severed longitudinally and removed from the spinal canal together with fasciae. Subsequently, the dorsal root ganglia (DRGs) are removed and in turn stored in cold HBSS buffer admixed with 1% by volume of an AA solution. The DRGs freed completely of blood residues and spinal nerves are in each case transferred to 500 μl of cold type 2 collagenase (PAA, Pasching, Austria) and incubated at 37° C. for 35 minutes. After addition of 2.5% by volume of trypsin (PAA, Pasching, Austria), incubation is continued at 37° C. for a further 10 minutes. After complete incubation, the enzyme solution is cautiously pipetted off and the remaining DRGs are each admixed with 500 μl of complete medium.
The DRGs are each suspended repeatedly, drawn through cannulas No. 1, No. 12 and No. 16 by means of a syringe and transferred to 50 ml Falcon tubes which are made up to 15 ml with complete medium. The contents of each Falcon tube are in each case filtered through a 70 μm Falcon filter insert and centrifuged at 1200 revolutions and room temperature for 10 minutes. The resulting pellet is in each case taken up in 250 μl of complete medium and the cell count is determined.
The number of cells in the suspension is adjusted to 3 times 10^5 per ml and in each case 150 μl of this suspension are added to one well of the cell culture plates coated as described above. In the incubator, the plates are left to stand at 37° C., 5% by volume of CO2 and 95% relative air humidity for two to three days. […]

T1 sequence (P34972 whole entry): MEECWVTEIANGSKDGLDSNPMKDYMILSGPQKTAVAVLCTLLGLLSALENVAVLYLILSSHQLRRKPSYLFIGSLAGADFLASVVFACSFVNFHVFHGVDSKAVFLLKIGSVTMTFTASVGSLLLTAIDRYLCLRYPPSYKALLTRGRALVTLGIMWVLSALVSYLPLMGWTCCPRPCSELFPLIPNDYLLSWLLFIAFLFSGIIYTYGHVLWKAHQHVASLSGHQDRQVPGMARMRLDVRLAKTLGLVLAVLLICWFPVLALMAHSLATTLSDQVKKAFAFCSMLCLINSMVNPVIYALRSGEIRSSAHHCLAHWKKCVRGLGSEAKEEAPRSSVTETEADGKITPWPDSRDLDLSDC
T2 sequence (Q8NER1 whole entry): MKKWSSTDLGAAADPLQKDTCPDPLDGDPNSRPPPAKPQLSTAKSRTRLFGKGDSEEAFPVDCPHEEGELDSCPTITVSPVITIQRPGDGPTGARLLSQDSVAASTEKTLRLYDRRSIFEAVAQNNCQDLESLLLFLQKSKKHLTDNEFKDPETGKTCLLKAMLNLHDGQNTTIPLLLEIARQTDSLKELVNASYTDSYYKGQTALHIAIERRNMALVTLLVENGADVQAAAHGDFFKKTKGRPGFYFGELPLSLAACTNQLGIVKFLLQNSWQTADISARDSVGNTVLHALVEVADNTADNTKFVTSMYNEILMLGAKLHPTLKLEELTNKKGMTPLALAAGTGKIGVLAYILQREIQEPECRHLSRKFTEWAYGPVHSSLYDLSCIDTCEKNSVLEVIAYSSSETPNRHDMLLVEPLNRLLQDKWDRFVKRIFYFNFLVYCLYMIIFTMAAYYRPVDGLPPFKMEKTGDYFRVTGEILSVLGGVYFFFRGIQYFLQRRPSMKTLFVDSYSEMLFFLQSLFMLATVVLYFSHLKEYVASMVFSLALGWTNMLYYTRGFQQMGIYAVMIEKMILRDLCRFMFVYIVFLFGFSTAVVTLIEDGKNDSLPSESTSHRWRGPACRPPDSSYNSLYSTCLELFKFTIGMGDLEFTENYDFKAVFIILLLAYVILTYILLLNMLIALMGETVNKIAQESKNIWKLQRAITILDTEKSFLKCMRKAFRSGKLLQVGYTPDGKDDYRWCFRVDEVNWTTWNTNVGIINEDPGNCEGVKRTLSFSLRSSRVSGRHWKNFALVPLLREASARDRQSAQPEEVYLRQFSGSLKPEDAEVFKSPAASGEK
T3 sequence (O35433 whole entry): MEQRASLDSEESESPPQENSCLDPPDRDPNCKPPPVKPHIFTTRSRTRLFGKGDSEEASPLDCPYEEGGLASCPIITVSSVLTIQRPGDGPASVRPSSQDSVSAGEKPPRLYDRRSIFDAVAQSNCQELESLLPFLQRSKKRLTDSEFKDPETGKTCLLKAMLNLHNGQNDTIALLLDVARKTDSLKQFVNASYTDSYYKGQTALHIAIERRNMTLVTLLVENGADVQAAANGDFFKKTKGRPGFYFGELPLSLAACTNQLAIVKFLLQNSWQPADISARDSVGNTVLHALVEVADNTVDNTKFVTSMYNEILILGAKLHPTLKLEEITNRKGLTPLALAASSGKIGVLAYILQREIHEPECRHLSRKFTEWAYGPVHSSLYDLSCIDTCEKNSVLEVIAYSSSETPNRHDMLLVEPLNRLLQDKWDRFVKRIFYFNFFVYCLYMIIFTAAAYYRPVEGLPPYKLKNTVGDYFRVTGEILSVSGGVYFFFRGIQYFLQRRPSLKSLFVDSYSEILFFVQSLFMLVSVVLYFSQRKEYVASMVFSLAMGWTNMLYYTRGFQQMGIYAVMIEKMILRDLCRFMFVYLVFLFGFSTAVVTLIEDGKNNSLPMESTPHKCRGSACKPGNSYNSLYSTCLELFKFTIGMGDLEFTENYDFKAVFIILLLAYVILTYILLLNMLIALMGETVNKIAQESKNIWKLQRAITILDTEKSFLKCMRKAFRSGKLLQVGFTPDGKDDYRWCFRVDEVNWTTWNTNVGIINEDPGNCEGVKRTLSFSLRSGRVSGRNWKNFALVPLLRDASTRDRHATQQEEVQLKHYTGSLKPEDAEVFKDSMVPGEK

inhibition at 10 µM (human CB2 receptor)	inhibition at 10 µM (vanilloid receptor (VR1))	inhibition at 10 µM [1]	VR1 (rat) (% stimulation compared to 10 μM CP) ([1]; Ca2+ signal relative to 10 μM capsaicin (CP))	SMILES
41%	21.8%	17.1%		O=C(Nc1ccc(F)cc1F)OCC1(CO)CCSc2ccccc2C1=O (centres unmarked) [Example Compound 20, (2,4-Difluorophenyl)carbamic acid 4-hydroxymethyl-5-oxo-2,3,4,5-tetrahydro-benzo[b]thiepin-4-ylmethyl ester]
28.3%	51.3%	52.8%		O=C1c2ccccc2SCCC1(CO)COC(=S)Nc1ccccc1 (centres unmarked) [Example Compound 9, Phenylthiocarbamic acid O-(4-hydroxymethyl-5-oxo-2,3,4,5-tetrahydro-benzo[b]thiepin-4-ylmethyl)ester]
	67.5%	59.7%	77.9%	O=C1c2ccccc2CCCC1(CO)COC(=S)Nc1cccc(C(F)(F)F)c1 (centres unmarked) [Example Compound 22, (3-Trifluoromethylphenyl)thiocarbamic acid O-(6-hydroxymethyl-5-oxo-6,7,8,9-tetrahydro-5H-benzocyclohepten-6-ylmethyl)ester]
3.8%	17.1%	46.6%		O=C1c2ccccc2SCCC1(CO)COC(=S)Nc1cccc(C(F)(F)F)c1 (centres unmarked) [Example Compound 17, (3-Trifluoromethylphenyl)thiocarbamic acid O-(4-hydroxymethyl-5-oxo-2,3,4,5-tetrahydrobenzo[b]thiepin-4-ylmethyl)ester]
40.3%	13.3%	32.2%		O=C(NC(=O)c1ccccc1)OCC1(COC(=O)NC(=O)c2ccccc2)CCOc2ccccc2C1=O [Example Compound 19, Benzoylcarbamic acid 4-benzoylcarbamoyloxymethyl-5-oxo-2,3,4,5-tetrahydro-benzo[b]oxepin-4-ylmethyl ester]
	36.3%	34.6%		O=C1c2ccccc2SCCC1(CO)COC(=S)Nc1ccc(F)cc1F (centres unmarked) [Example Compound 21, (2,4-Difluorophenyl)thiocarbamic acid O-(4-hydroxymethyl-5-oxo-2,3,4,5-tetrahydrobenzo[b]thiepin-4-ylmethyl)ester]
15.6%	31.5%	52.1%		O=C1c2ccccc2OCCC1(CO)COC(=S)Nc1cccc(C(F)(F)F)c1 (centres unmarked) [Example Compound 18, (3-Trifluoromethylphenyl)thiocarbamic acid O-(4-hydroxymethyl-5-oxo-2,3,4,5-tetrahydrobenzo[b]oxepin-4-ylmethyl)ester]
